In patent US9828333B2, “Compounds for the treatment of influenza” (CHRISTIAN-ALBRECHTS-UNIVERSITAT ZU KIEL, priority 2011, dated 2017):
≈ marks a conversion by molar mass, not a printed value. Where “and” joins values, the source holds several entries; their conditions need not be identical. Equal entries are not always repeated. Structures can show the parent of a compound that is named as a salt. Where two headings read alike, the source gives them in different places.

Experiments:
in vivo = details: Sprague Dawley, rat, in vivo, po, 50 mg/kg
Method: Sprague Dawley (SD) rats were supplied for habitation 10 days before the start of the experiment, weighing ˜300-350 g and kept in an air conditioned room with a constant temperature of 20° C. and a humidity of 50%. In this room there was a day-night rhythm of twelve hours. The dark phase began daily at 18 o'clock and turned over to the light phase at 6 clock. The rats were kept over the acclimatization period in standard cages of the size 3 (length: 42 cm, width 26 cm, height: 15 cm) and transferred three days before commencement of an experiment into a special experimental room, placed in the identical environmental conditions. They received a maintenance diet (maintenance diet for rats and mice; No. 1320; Altromin) and tap water ad libitum.
A catheter was implanted in the vein as well as in the arteria femoralis of rats receiving an i.v. administration. Rats receiving only oral administration of substances received a […] catheter only.
The catheterized animals were kept after surgery for a day in the experimental room and individually in their experimental cages. The application of the test compounds was carried out on the second day after the operation. On the experimental day, the rats were weighed one hour prior to the test and the arterial catheter was flushed with 300 μl of heparin solution. Subsequently, the i.v. or oral administration of the compounds was carried out.
The oral administrations were performed as a suspension or solution made with gum arabic (10% w/v) by gavage.
The oral administrations were made as suspension or solution with gum arabic (10% w/v) by gavage.
After i.v. administration, plasma samples were taken at 5, 10, 20, 45, 90, 150, 240 and 360 min, respectively after oral administration after 30, 60, 90, 120, 180, 240 and 360 min. To this, in each case 300 μl of whole blood were taken using an insulin syringe and transferred into EDTA-coated Microvettes CB 300 (Sarstedt, Nümbrecht). After each withdrawal it was rinsed with 100 μl 0.9% saline or every 60 min with heparin solution (250 IU/ml). The blood sample was shaken briefly and put until centrifugation (4° C.; 14000 U/min; 10 min) on ice. Subsequently, the samples were frozen at −80° C.
The plasma samples were processed and analyzed by HPLC. Therefor, the plasma samples were thawed at room temperature. In each case, 80 μl methanol (+0.2% TFA) were prepared and subsequently 80 μl of the plasma samples were pipetted into. The samples were shaken for 45 min to precipitate plasma proteins. The samples were frozen at −80° C., thawed and shaken for another 15 min. The samples were centrifuged for 15 min at 13.000 RPM and the supernatant was transferred into HPLC vials. In each case 50 μl were used for the determinations by LC/MS.
The animal studies were evaluated using the following LC/MS method.

physchem = assay type: physicochemical; details: thermodynamic from solid; for solubility: read-out: maximum soluble concentration
Method: 2. Solubility Assays of the Compounds Tested
Determining the Solubility at Different pH Values:
Therefor, a few mg of the compounds were weighed and mixed with the volume of 50 mM KH2PO4 buffer of respective pH value for a 50 mM solution. […] Subsequently, the undissolved portion was removed by centrifugation at 10.000 rpm for 15 min, and the concentration in the supernatant was determined by HPLC.

albumin = albumin (Homo sapiens, UniProt P02768); assay type: in vitro ADME; details: 4% albumin solution, average of three concentrations (10, 25, 50 μM)
Chain of albumin (P02768 25-609): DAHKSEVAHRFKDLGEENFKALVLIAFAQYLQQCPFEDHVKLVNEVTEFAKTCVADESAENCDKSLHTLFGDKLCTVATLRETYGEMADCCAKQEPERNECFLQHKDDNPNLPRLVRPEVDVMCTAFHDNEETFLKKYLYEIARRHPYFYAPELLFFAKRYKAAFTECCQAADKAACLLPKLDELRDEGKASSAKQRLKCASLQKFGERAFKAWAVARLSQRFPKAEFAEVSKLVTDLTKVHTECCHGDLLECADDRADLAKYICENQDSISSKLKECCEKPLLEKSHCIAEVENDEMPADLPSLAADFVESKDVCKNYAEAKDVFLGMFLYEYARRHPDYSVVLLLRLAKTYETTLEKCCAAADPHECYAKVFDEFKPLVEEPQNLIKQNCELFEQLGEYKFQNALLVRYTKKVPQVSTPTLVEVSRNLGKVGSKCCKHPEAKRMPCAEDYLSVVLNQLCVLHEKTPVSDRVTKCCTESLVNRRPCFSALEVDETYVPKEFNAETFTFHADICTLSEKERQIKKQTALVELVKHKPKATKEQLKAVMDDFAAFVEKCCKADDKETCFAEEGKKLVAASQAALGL
Method: 3. Determination of Protein Binding of the Amidine Effective Form (3) as Well as of Prodrugs Thereof (2, 4) and of the Guanidine Effective Form (9) as Well as of Prodrugs Thereof (6, 10)
The plasma protein binding was carried out in three different concentrations (10, 25, and 50 μM). A 4% albumin solution was used as protein solutions. In each case, 50 μl of a 10-fold concentrated substance solution were pipetted in 450 μl of the protein solution. The incubation was carried out for 15 minutes in the shaking water bath at 37° C. Subsequently, the samples were transferred in ultra-filtration units (Vivaspin 500, 10 kDa cut-off) and centrifuged for 15 min at 10.000 rpm. The filtrate was analyzed by HPLC. In addition, a control was run for each concentration, which was not treated with protein and not centrifuged.

[1] = tested on: influenza A virus A/342/2009; assay: microbe, parasite or virus in culture; assay type: cell-based, influenza A virus H1N1; details: read-out: 50% inhibitory concentration, A/342/2009
[2] = tested on: influenza A virus A/Jena/5258/2009; assay: microbe, parasite or virus in culture; assay type: cell-based, influenza A virus H1N1; details: read-out: 50% inhibitory concentration, A/Jena/5258/2009
[3] = tested on: influenza A virus A/Jena/5258/2009 (pandemic H1N1; oseltamivir-sensitive); assay type: cell-based

Compound	Bioavailability (in vivo) [%]	Plasma level of derivative 3 (Conc.) after oral administration of the labelled derivative (in vivo; 0 min) [nM]	Plasma level of derivative 3 (Conc.) after oral administration of the labelled derivative (in vivo; 30 min) [nM]	Plasma level of derivative 3 (Conc.) after oral administration of the labelled derivative (in vivo; 60 min) [nM]	Plasma level of derivative 3 (Conc.) after oral administration of the labelled derivative (in vivo; 90 min) [nM]	Plasma level of derivative 3 (Conc.) after oral administration of the labelled derivative (in vivo; 120 min) [nM]	Plasma level of derivative 3 (Conc.) after oral administration of the labelled derivative (in vivo; 180 min) [nM]	Plasma level of derivative 3 (Conc.) after oral administration of the labelled derivative (in vivo; 240 min) [nM]	Plasma level of derivative 3 (Conc.) after oral administration of the labelled derivative (in vivo; 360 min) [nM]	solubility at 30 min (physchem; aqueous buffer) [mM]	solubility at 30 min (physchem; pH 2, aqueous buffer)	solubility at 30 min (physchem; pH 7.4, aqueous buffer)	solubility at 30 min (physchem; pH 9, aqueous buffer)	Protein binding (albumin) [%]	also measured
CCOC(=O)C1=C[C@@H](OC(CC)CC)[C@H](NC(C)=O)[C@@H](NC(C)=N)C1 [Compound 2, (3R,4R,5S)-4-acetamido-5-(N-acetimidamido)-3-(1-ethylpropoxy)cyclohex-1-en-1-carboxylic acid ethyl ester hydrobromide]	0.8	0	430	350	330	290	70	10	0	> 50	> 17700 µg/mL and > 50000 µM	> 17700 µg/mL and > 50000 µM	> 17700 µg/mL and > 50000 µM	34.8 ± 8.8	–
CCOC(=O)C1=C[C@@H](OC(CC)CC)[C@H](NC(C)=O)[C@@H](N/C(C)=N/O)C1 [Compound 4, (3R,4R,5S)-4-acetamido-5-[N—(N′-hydroxy)acetimidamido]-3-(1-ethylpropoxy)cyclohex-1-en-1-carboxylic acid ethyl ester]	–	0	6500	8980	8800	8100	6430	5340	2190	> 20	> 18500 µg/mL and > 50000 µM	8600 ± 400 µg/mL	8600 ± 700 µg/mL	26.7 ± 2.5	Plasma level of intermediary metabolite 11 (Conc.) after oral administration of derivative 4 (in vivo; 0 min): 0 nM; Plasma level of intermediary metabolite 11 (Conc.) after oral administration of derivative 4 (in vivo; 30 min): 7220 nM; Plasma level of intermediary metabolite 11 (Conc.) after oral administration of derivative 4 (in vivo; 60 min): 2680 nM; Plasma level of intermediary metabolite 11 (Conc.) after oral administration of derivative 4 (in vivo; 90 min): 2160 nM; Plasma level of intermediary metabolite 11 (Conc.) after oral administration of derivative 4 (in vivo; 120 min): 1960 nM; Plasma level of intermediary metabolite 11 (Conc.) after oral administration of derivative 4 (in vivo; 180 min): 850 nM; Plasma level of intermediary metabolite 11 (Conc.) after oral administration of derivative 4 (in vivo; 240 min): 490 nM; Plasma level of intermediary metabolite 11 (Conc.) after oral administration of derivative 4 (in vivo; 360 min): 130 nM; solubility (physchem; aqueous buffer, pH 7.4, 50 mM KH2PO4 buffer): 23.2 ± 1.2 mM (≈ 8570 µg/mL); solubility (physchem; aqueous buffer, pH 9.0, 50 mM KH2PO4 buffer): 23.3 ± 1.8 mM (≈ 8610 µg/mL)
CCOC(=O)C1=C[C@@H](OC(CC)CC)[C@H](NC(C)=O)[C@@H](NC(N)=NO)C1 [Compound 6, (3R,4R,5S)-4-acetamido-[N—(N′ hydroxy)guanidino]-3-(1-ethylpropoxy)cyclohex-1-en-1-carboxylic acid ethyl ester]	1.7	–	–	–	–	–	–	–	–	> 50	> 18500 µg/mL and > 50000 µM	> 18500 µg/mL and > 50000 µM	> 18500 µg/mL and > 50000 µM	37.5 ± 10.1	Plasma level of derivative 9 (Conc.) after oral administration of the labelled derivative (in vivo; 0 min): 0 nM; Plasma level of intermediary metabolite 12 (Conc.) after oral administration of derivative 6 (in vivo; 0 min): 0 nM; Plasma level of derivative 9 (Conc.) after oral administration of the labelled derivative (in vivo; 30 min): 200 nM; Plasma level of intermediary metabolite 12 (Conc.) after oral administration of derivative 6 (in vivo; 30 min): 200 nM; Plasma level of derivative 9 (Conc.) after oral administration of the labelled derivative (in vivo; 60 min): 220 nM; Plasma level of intermediary metabolite 12 (Conc.) after oral administration of derivative 6 (in vivo; 60 min): 160 nM; Plasma level of derivative 9 (Conc.) after oral administration of the labelled derivative (in vivo; 90 min): 180 nM; Plasma level of intermediary metabolite 12 (Conc.) after oral administration of derivative 6 (in vivo; 90 min): 200 nM; Plasma level of derivative 9 (Conc.) after oral administration of the labelled derivative (in vivo; 120 min): 190 nM; Plasma level of intermediary metabolite 12 (Conc.) after oral administration of derivative 6 (in vivo; 120 min): 190 nM; Plasma level of derivative 9 (Conc.) after oral administration of the labelled derivative (in vivo; 180 min): 210 nM; Plasma level of intermediary metabolite 12 (Conc.) after oral administration of derivative 6 (in vivo; 180 min): 80 nM; Plasma level of derivative 9 (Conc.) after oral administration of the labelled derivative (in vivo; 240 min): 180 nM; Plasma level of intermediary metabolite 12 (Conc.) after oral administration of derivative 6 (in vivo; 240 min): 10 nM; Plasma level of derivative 9 (Conc.) after oral administration of the labelled derivative (in vivo; 360 min): 50 nM; Plasma level of intermediary metabolite 12 (Conc.) after oral administration of derivative 6 (in vivo; 360 min): 0 nM
CCOC(=O)C1=C[C@@H](OC(CC)CC)[C@H](NC(C)=O)[C@@H](NC(=N)N)C1 [Compound 10]	1.1	–	–	–	–	–	–	–	–	> 50	> 23400 µg/mL and > 50000 µM	> 23400 µg/mL and > 50000 µM	> 23400 µg/mL and > 50000 µM	30.1 ± 2.3	–
CC(=O)N[C@H]1[C@H]([C@H](O)[C@H](O)CO)OC(C(=O)O)=C[C@@H]1N=C(N)N [Zanamivir, reference compound]	–	–	–	–	–	–	–	–	–	–	–	–	–	–	IC50 [1]: 600 nM; IC50 [2]: > 19500 nM; 90% inhibitory concentration, A/Jena/5258/2009 [3]: 0.125 (0.219) μM; 95% inhibitory concentration (values in parentheses), A/Jena/5258/2009 [3]: 0.125 (0.219) μM
